# Test results taken from US6375974B1 (Mitsui Takeda Chemicals, Inc., priority 1998, dated 2002).
# Tests used:
# [1] = ethanol; cited from earlier work
# Escherichia coli O-157 = conditions: cited from earlier work
# [2] = dissolution of fine grains in water by slow stirring; assay type: physicochemical; conditions: 15 g fine grains (80-mesh pass) in 10 l of water at 20° C., slowly stirred for 24 hours
# Source text: Because of the low dissolution rate, fumaric acid cannot be completely dissolved but remains as fine grains giving a slurry in these conventional methods. […] When such an aqueous fumaric acid solution is employed in sterilizing meats, the remaining fumaric acid grains sometimes damage the meat tissue.
# gram negative bacteria = conditions: cited from earlier work
# [3] = test system: various bacteria such as E. coli 0-157; conditions: at 1.0% and 1.5%; cited from earlier work
# [4] = test system: various gram negative bacteria; conditions: cited from earlier work
# [5] = cited from earlier work
compound,measurement,setting,value
CCO [ethanol],time after which a bactericidal effect was exerted,[1],60 min
O=C(O)/C=C/C(=O)O [fumaric acid],bactericidal effect,Escherichia coli O-157,strong bactericidal effect
same,dissolution of fine grains,[2],not completely dissolved
same,growth of gram negative bacteria,gram negative bacteria,inhibited the growth
same,bactericidal effect compared with other organic acids,[3],exceeding those of other organic acids
same,bactericidal effect,"[4]; gram negative bacteria (E. coli, salmonella, Shigella, etc.), short contact time",potent bactericidal effect
same,antibacterial effect,"[4]; within a short time, compared with other organic acids",strong antibacterial effect
O=C([O-])/C=C/C(=O)O.[Na+] [monosodium fumarate],concentration showing bactericidal effects,[5]; aqueous solution,0.8%
same,bactericidal effects,[5]; concentration of 0.6% or less,did not show bactericidal effects
